Source: patent US20250377365A1, “METHODS INVOLVING DETECTING TNF STIMULATED GENE 6 (TSG-6) FOR IMPROVING ANTI-TUMOR RESPONSES TO IMMUNE THERAPY IN CANCER PATIENTS” (BOARD OF REGENTS, THE UNIVERSITY OF TEXAS SYSTEM, priority 2022, published 2025)

Tested on: bone marrow-derived macrophages (BMDM)
Assay: In vitro macrophage polarization assay (RT-qPCR gene expression)
Assay type: cell-based, mice
Conditions: 0.5 mg/mL recombinant TSG6, 2 days, qPCR vs GAPDH, FIG. 3C
Description: To determine if fibroblast secreted TSG-6 regulates the presence the distinct myeloid subsets between melanoma and pancreatic TME, the inventors performed receptor-ligand studies between the myeloid subsets and fibroblasts. First, the inventors analyzed the relative expression of TSG-6 and its binding partner CD44 in the fibroblasts and macrophage/neutrophil subsets. While TSG-6 was expressed slightly higher in the mT4 tumors as compared to B16F10 tumors, its ligand CD44 was primarily expressed in the macrophage/neutrophil subsets only in the mT4 tumors (FIG. 3A). To determine if this observation correlates with higher interactions between TSG-6 and suppressive myeloid subsets in the mT4 tumors, the inventors performed receptor-ligand interaction studies using CellChat analysis (PMID: 33597522). The analysis indicated strong communication probabilities of fibroblast expressed TSG-6 and myeloid CD44 interaction only in the mT4 tumors and not B16F10 tumors (FIG. 3B). To further evaluate whether TSG-6 regulates the immunosuppressive macrophage phenotype, the inventors performed an in vitro macrophage polarization assay. The inventors stimulated bone marrow-derived macrophages (BMDM) with either LPS or recombinant TSG-6 (rTSG-6) and observed that rTSG-6 increased the expression of Arg1, Mafb, Mrc1, and Vista in the macrophages and suppressed Ifng expression (FIG. 3C). Thus, the above data indicates TSG-6 interacts with suppressive intratumoral myeloid subsets and might have a role to play in resistance to ICT.
TSG-6 stimulated bone marrow derived macrophages (BMDM) and RT-qPCR Gene Expression: BMDM were isolated from the femurs of wild type C57/BL6 mice in ice cold complete RPMI 1640 media. Both epiphyses were removed before the bones were placed in sterile microfuge tubes and centrifuged at 500×g for 5 minutes at 4° C. to extrude the bone marrow. The collected bone marrow was homogenized by pipetting followed by RBC lysis. The single cell suspension of bone marrow cells obtained, was counted in an automated Vicell cell counter before 2.0e6 cells/well were cultured in Iscove's Modified Dulbecco's Medium (IMDM) supplemented with 10% FBS and 10 ng/ml Macrophage colony-stimulating factor (M-CSF) (Biolegend, Cat #576404)) in a 12 well plate. On Day 3, cells were resuspended in fresh growth media and on Day 7, cells were subjected to fresh complete IMDM containing 100 ng/ml LPS (InvivoGen, Cat #tlrl-eblps) and 0.5 mg/mL recombinant TSG6 (R&D Systems, Cat #2326-TS-050) and left in culture for 2 days. Supernatants were removed and adhered macrophages were subjected to Accutase cell detachment solution following manufacturers protocol (Innovative Cell Technologies, 07920). Macrophages were resuspended and centrifuged at 350×g for 8 minutes. Cell pellets were lysed with 350 uL buffer RLT lysis buffer (Qiagen, 74104) supplemented with B-ME and subjected to RNA extraction using RNA mini extraction kit (Qiagen, 74104). cDNA was synthesized using the NEB LunaScript RT SuperMix Kit (E3010L) and 30 ng of total cDNA was used for each 20 uL qPCR reaction. Taqman gene expression Real-Time PCR assays were run using manufacturers protocol and gene targets were compared to GAPDH housekeeping expression (GAPDH, Mm05724508_g1; IFNg, Mm01168134_m1; Mrc1, Mm01329359_m1; Arg1, Mm00475988_m1; Mafb, Mm00627481_s1, VISTA, Mm00472312_m1).

## rTSG-6: recombinant TSG6 protein, R&D Systems, Cat #2326-TS-050
  Ifng expression: suppressed
  expression of Arg1: increased
  expression of Mafb: increased
  expression of Mrc1: increased
  expression of Vista: increased
